{"source": "patent US10798893B2", "about": "“Induced chromosome doubling in plants” (Dow AgroSciences LLC, priority 2009, dated 2020)", "key": {"[1]": {"system": "haploid germinated maize seedlings", "description": "An exemplary cycloalkene, 1,2,3-Trimethoxy-4-(1S,6R)-6-nitro-cyclohex-3-enyl)-benzene, designated as compound 1 was used to determine double haploid efficiency, doubling rate by a coleoptile tip cutting, seedling soaking method. […] Data provided in Tables 1, 2 and 3 were generated using haploid seeds obtained through cross pollination of a maize line of interest with an inducer maize line.\nThe resulting maize seeds were sorted based on marker gene color.\nColeoptile tips in maize seedlings were cut and the seedlings were soaked in various chromosome doubling agents as shown in Table 1. Haploid maize seeds were germinated and the coleoptile tips were excised (1-2 mm). Seedlings that survived were transplanted and grown until tassels and silk formed. Plants that produced tassels and silk were self-pollinated. Seeds produced from the self-pollination were visually assessed for the marker to identify them as double haploid (dihaploid)."}, "[2]": {"system": "germinated haploid maize seedlings", "experiment": "Foliar spray treatment of germinated haploid maize seedlings in soil at V1-V3 stage", "format": "in vivo", "method": "Haploid maize seeds were planted in Sun Gro METRO-MIX® 306 planting mixture, which typically has a pH of 6.0 to 6.8 and an organic matter content of about 30 percent, in 72-well, plastic propagation flats (Dillen Products; Middlefield Ohio). When required to ensure good germination and healthy plants, a fungicide treatment and/or other chemical or physical treatment was applied. The plants were grown in a greenhouse with an approximate 15 hour photoperiod which was maintained at about 23-29° C. during the day and 22-28° C. during the night until they reached the V1-V3 growth stage. Nutrients and water were added on a regular basis and supplemental lighting was provided with overhead metal halide 1000-Watt lamps as necessary.\nA weighed amount of compound 1, determined by the rate to be tested, was dissolved in 1.2 mL of dimethyl sulfoxide (DMSO) to obtain concentrated stock solutions. […] The concentrated stock solutions obtained were diluted with 10.8 mL of an aqueous mixture containing 1.25% v/v (volume/volume) Agri-dex Crop Oil Concentrate. Compound requirements are based upon a 12 mL application volume at a rate of 187 L/ha. Formulated compounds were applied to the plant material with an overhead Mandel track sprayer equipped with a 8002E nozzle calibrated to deliver 187 L/ha over an application area of 0.503 square meter at a spray height of 18 inches ([…]) above the average plant canopy height. Control plants were sprayed in the same manner with the solvent blank.\nThe treated plants and control plants were placed in a greenhouse, as described above, and watered by sub-irrigation to prevent wash-off of the test compounds. Approximately 14 days after treatment, the treated plants were transplanted to individual pots containing Sun Gro METRO-MIX® 360. Plants that produced tassels and silk were then self-pollinated to obtain dihaploid seed.\nTable 3 illustrates the results of doubling rate after spray treatment with the chemicals of interest. […] The spray treated plant tassels and silks were synchronized well and the plants shed more pollen."}, "rabbit": {"system": "rabbit", "conditions": "cited from earlier work"}, "rats": {"system": "rats", "experiment": "Dermal toxicity on rats", "format": "in vivo, rat", "conditions": "200 mg/kg"}, "[3]": {"conditions": "after transplanting, rate 25 μM"}, "[4]": {"conditions": "after transplanting, rate 125 μM"}, "[5]": {"conditions": "seedling soak, colchicine 0.06% w/v (rate cell empty)"}}, "note": "Like-named read-outs stand apart in the source and are kept apart here.", "data": [{"smiles": "CC(C)OC(=O)Nc1cccc(Cl)c1", "note": "[Chlorpropham, chlorpropham]", "values": [{"measurement": "No. plants dead after TP", "setting": "[1]; after transplanting, rate 5 μM", "value": 0}, {"measurement": "No. plants dead after TP", "setting": "[1]; [3]", "value": 0}, {"measurement": "No. plants dead after TP", "setting": "[1]; [4]", "value": 0}, {"measurement": "# plants dead after treatment", "setting": "[2]; spray, 70 g ai/ha", "value": 0}, {"measurement": "# plants dead after treatment", "setting": "[2]; spray, 280 g ai/ha", "value": 1}]}, {"smiles": "COc1cc2c(c(OC)c1OC)-c1ccc(OC)c(=O)cc1[C@@H](NC(C)=O)CC2", "note": "[Colchicine, colchicine]", "values": [{"measurement": "Eye irritation", "setting": "rabbit", "value": "about 1 %/3D"}, {"measurement": "No. plants dead after TP", "setting": "[1]; after transplanting, colchicine 0.06% w/v (rate cell empty)", "value": 0}, {"measurement": "No. plants alive", "setting": "[1]; [5]", "value": 38}, {"measurement": "No. plants dead", "setting": "[1]; [5]", "value": 27}]}, {"smiles": "COc1ccc([C@@H]2CC=CC[C@H]2[N+](=O)[O-])c(OC)c1OC", "note": "[Compound 1, 1,2,3-Trimethoxy-4-((1S,6R)-6-nitro-cyclohex-3-enyl)-benzene]", "values": [{"measurement": "No. plants dead after TP", "setting": "[1]; maize, in vivo, 5 μM", "value": 2}, {"measurement": "No. plants dead after TP", "setting": "[1]; maize, in vivo, 25 μM", "value": 2}, {"measurement": "No. plants dead after TP", "setting": "[1]; maize, in vivo, 125 μM", "value": 2}, {"measurement": "# plants dead after treatment", "setting": "[2]; maize, in vivo", "value": 0}, {"measurement": "dermal toxicity", "setting": "rats", "value": "No dermal toxicity was observed"}]}, {"smiles": "C#CC(C)(C)NC(=O)c1cc(Cl)cc(Cl)c1", "note": "[Pronamide, pronamide]", "values": [{"measurement": "No. plants dead after TP", "setting": "[1]; after transplanting, rate 5 μM", "value": 3}, {"measurement": "No. plants dead after TP", "setting": "[1]; [3]", "value": 1}, {"measurement": "No. plants dead after TP", "setting": "[1]; [4]", "value": 0}, {"measurement": "# plants dead after treatment", "setting": "[2]; spray, 35 g ai/ha", "value": 0}, {"measurement": "# plants dead after treatment", "setting": "[2]; spray, 140 g ai/ha", "value": 0}]}]}
